Earlier results, collected in patent US20250169750A1 (HEMOLENS DIAGNOSTICS SP. Z O.O., priority 2022, published 2025).

Columns and labels:
[1] = test system: coronary vascular responsiveness to adenosine; conditions: for coronary conductance change / systemic pressure change: dog, in vivo
A2A adenosine receptors = A2A adenosine receptors (Homo sapiens, UniProt P29274)
Sequence of A2A adenosine receptors (P29274 whole entry): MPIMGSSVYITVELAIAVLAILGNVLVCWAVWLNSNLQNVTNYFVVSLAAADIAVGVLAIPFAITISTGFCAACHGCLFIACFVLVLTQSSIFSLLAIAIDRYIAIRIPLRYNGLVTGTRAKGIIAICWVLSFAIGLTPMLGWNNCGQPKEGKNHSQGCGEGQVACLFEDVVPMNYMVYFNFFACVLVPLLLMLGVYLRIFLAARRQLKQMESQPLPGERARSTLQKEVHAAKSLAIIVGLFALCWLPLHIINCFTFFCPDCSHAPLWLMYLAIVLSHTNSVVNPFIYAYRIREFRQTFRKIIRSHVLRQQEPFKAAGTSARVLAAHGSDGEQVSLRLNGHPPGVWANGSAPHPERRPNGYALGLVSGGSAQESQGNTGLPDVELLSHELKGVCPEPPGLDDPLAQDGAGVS

In the case of `COc1ccc(Cl)cc1C(=O)NCCc1ccc(S(=O)(=O)NC(=O)NC2CCCCC2)cc1` [Glibenclamide], the “change of Adenosine ED50” value ([1]; after Glibenclamide administration) is listed as “increased dose-dependently”, the coronary conductance change [1] is listed as “reduction in coronary conductance” and the systemic pressure change [1] is listed as “increase in systemic pressure”.

For `Nc1nc(N/N=C/C2CCCCC2)nc2c1ncn2[C@@H]1O[C@H](CO)[C@@H](O)[C@H]1O` [Binodenoson], the “affinity to an Adenosine receptor (comparison)” value (A2A adenosine receptors; APA vs BND) is given as “equal” and the “duration of the action” value (A2A adenosine receptors; intravenous bolus) is given as “less than 5 minutes”.

For `CNC(=O)c1cnn(-c2nc(N)c3ncn([C@@H]4O[C@H](CO)[C@@H](O)[C@H]4O)c3n2)c1` [Regadenoson], the “stress myocardial blood flow (MBF), comparison” value (400 μg bolus vs Dipyridamole 0.56 mg/kg or Adenosine 140 μg/kg/min, 15 healthy volunteers) is given as “higher values”, the “heart rate (HR), comparison” value (400 μg bolus vs Dipyridamole or Adenosine) is given as “higher values” and the “stress MBF adjusted to HR, comparison” value (Regadenoson vs Adenosine) is given as “no differences between Adenosine and Regadenoson”. For the same molecule, the “stress MPR adjusted to HR, comparison” value (Regadenoson vs Adenosine) was “no differences between Regadenoson and Adenosine” and the “unadjusted myocardial perfusion reserve (MPR), comparison” value (vs Adenosine and Dipyridamole) was “higher”.

For `COC(=O)[C@@H](N)CCCNC(=N)N[N+](=O)[O-]` [L-NAME, N^ω-Nitro-L-arginine methyl ester], the “change of Adenosine plasma concentration needed to reach 50% of maximal conductivity increase (ED50)” value ([1]; after 1 mg/kg or 10 mg/kg of L-NAME, vs basal condition) is given as “increased three times”, the coronary conductance change [1] is given as “reduction in coronary conductance” and the systemic pressure change [1] is given as “increase in systemic pressure”.
